PubChem BioAssay (NCI)
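The compound was tested at five concentrations on cells cultured in 96-well plates, with a 48-hour exposure period. TGI denotes the concentration required for complete inhibition of growth.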 Where a SMILES comes first, the peptide text is derived from it. The star is where a group is joined. Cbz = O=C(OCc1ccccc1)*

Assays:
Assay in all cases: NCI tumour cell line growth inhibition, 48 h
CAKI-1 renal = system: CAKI-1 renal
DU-145 prostate = system: DU-145 prostate
HL-60(TB) leukemia = system: HL-60(TB) leukemia
T-47D breast = system: T-47D breast
786-0 renal = system: 786-0 renal
OVCAR-4 ovarian = system: OVCAR-4 ovarian
TK-10 renal = system: TK-10 renal
RXF 393 renal = system: RXF 393 renal
MALME-3M melanoma = system: MALME-3M melanoma
OVCAR-8 ovarian = system: OVCAR-8 ovarian
K-562 leukemia = system: K-562 leukemia
SW-620 colon = system: SW-620 colon
SR leukemia = system: SR leukemia
SK-MEL-2 melanoma = system: SK-MEL-2 melanoma
SF-268 CNS = system: SF-268 CNS
EKVX NSCLC = system: EKVX NSCLC
OVCAR-3 ovarian = system: OVCAR-3 ovarian
SK-OV-3 ovarian = system: SK-OV-3 ovarian
COLO 205 colon = system: COLO 205 colon
NCI-H226 lung = system: NCI-H226 lung
SNB-75 CNS = system: SNB-75 CNS
OVCAR-5 ovarian = system: OVCAR-5 ovarian
LOX IMVI melanoma = system: LOX IMVI melanoma
SK-MEL-5 melanoma = system: SK-MEL-5 melanoma
CCRF-CEM leukemia = system: CCRF-CEM leukemia
MOLT-4 leukemia = system: MOLT-4 leukemia
RPMI-8226 leukemia = system: RPMI-8226 leukemia
NCI-H460 lung = system: NCI-H460 lung
SN12C renal = system: SN12C renal
HOP-92 NSCLC = system: HOP-92 NSCLC
HOP-62 NSCLC = system: HOP-62 NSCLC
MCF7 breast = system: MCF7 breast
UO-31 renal = system: UO-31 renal
PC-3 prostate = system: PC-3 prostate
HCT-15 colon = system: HCT-15 colon
M14 melanoma = system: M14 melanoma
IGROV1 ovarian = system: IGROV1 ovarian
HS 578T breast = system: HS 578T breast
NCI-H23 lung = system: NCI-H23 lung
MDA-MB-231 breast = system: MDA-MB-231 breast
A498 renal = system: A498 renal
HCT-116 colon = system: HCT-116 colon
SK-MEL-28 melanoma = system: SK-MEL-28 melanoma
NCI-H522 lung = system: NCI-H522 lung
KM12 colon = system: KM12 colon
UACC-62 melanoma = system: UACC-62 melanoma
MDA-MB-435 = system: MDA-MB-435
HT29 colon = system: HT29 colon
A549 NSCLC = system: A549 NSCLC
UACC-257 melanoma = system: UACC-257 melanoma
ACHN renal = system: ACHN renal
SF-295 CNS = system: SF-295 CNS
U251 CNS = system: U251 CNS
SNB-19 CNS = system: SNB-19 CNS
SF-539 CNS = system: SF-539 CNS
HCC-2998 colon = system: HCC-2998 colon
MDA-N = system: MDA-N
BT-549 breast = system: BT-549 breast
NCI/ADR-RES ovarian = system: NCI/ADR-RES ovarian
M19-MEL melanoma = system: M19-MEL melanoma
LXFL 529 NSCLC = system: LXFL 529 NSCLC
XF 498 CNS = system: XF 498 CNS
SNB-78 CNS = system: SNB-78 CNS
KM20L2 colon = system: KM20L2 colon

Measured: TGI

O=C(O)CCC(NC(=O)OCc1ccccc1)C(=O)NC(Cc1cnc[nH]1)C(=O)O (stereo not drawn) (Cbz-Glu-His-OH; configuration not given here)
> 100 µM: CAKI-1 renal | DU-145 prostate | HL-60(TB) leukemia | T-47D breast | 786-0 renal | OVCAR-4 ovarian | TK-10 renal | RXF 393 renal | MALME-3M melanoma | OVCAR-8 ovarian | K-562 leukemia | SW-620 colon | SR leukemia | SK-MEL-2 melanoma | SF-268 CNS | EKVX NSCLC | OVCAR-3 ovarian | SK-OV-3 ovarian | COLO 205 colon | NCI-H226 lung | SNB-75 CNS | OVCAR-5 ovarian | LOX IMVI melanoma | SK-MEL-5 melanoma | CCRF-CEM leukemia | MOLT-4 leukemia | RPMI-8226 leukemia | NCI-H460 lung | SN12C renal | HOP-92 NSCLC | HOP-62 NSCLC | MCF7 breast | UO-31 renal | PC-3 prostate | HCT-15 colon | M14 melanoma | IGROV1 ovarian | HS 578T breast | NCI-H23 lung | MDA-MB-231 breast | A498 renal | HCT-116 colon | SK-MEL-28 melanoma | NCI-H522 lung | KM12 colon | UACC-62 melanoma | MDA-MB-435 | HT29 colon | A549 NSCLC | UACC-257 melanoma | ACHN renal | SF-295 CNS | U251 CNS | SNB-19 CNS | SF-539 CNS | HCC-2998 colon | MDA-N | BT-549 breast | NCI/ADR-RES ovarian

COc1ccc(NC(=O)/C(Cc2cc(=O)oc3cc(O)ccc23)=N\NC(C)(C)C)c(OC)c1
> 100 µM: CAKI-1 renal | M19-MEL melanoma | HL-60(TB) leukemia | LXFL 529 NSCLC | 786-0 renal | OVCAR-4 ovarian | TK-10 renal | MALME-3M melanoma | OVCAR-8 ovarian | K-562 leukemia | SW-620 colon | SR leukemia | SK-MEL-2 melanoma | XF 498 CNS | SF-268 CNS | EKVX NSCLC | OVCAR-3 ovarian | SK-OV-3 ovarian | COLO 205 colon | NCI-H226 lung | SNB-78 CNS | OVCAR-5 ovarian | LOX IMVI melanoma | SK-MEL-5 melanoma | CCRF-CEM leukemia | MOLT-4 leukemia | RPMI-8226 leukemia | NCI-H460 lung | SN12C renal | HOP-92 NSCLC | HOP-62 NSCLC | UO-31 renal | HCT-15 colon | M14 melanoma | IGROV1 ovarian | NCI-H23 lung | A498 renal | HCT-116 colon | SK-MEL-28 melanoma | NCI-H522 lung | KM12 colon | UACC-62 melanoma | HT29 colon | A549 NSCLC | UACC-257 melanoma | ACHN renal | SF-295 CNS | U251 CNS | KM20L2 colon | SNB-19 CNS | SF-539 CNS | HCC-2998 colon
